Experimental data taken from ChEMBL document CHEMBL6103622 (J Med Chem, 2025).
Activity calls are given as the source filed them. No cut-off for these calls is given here.

Assays:
[1] = target: T1, Macrophage colony-stimulating factor 1 receptor (Mus musculus) (UniProt P09581); experiment: Inhibition of CSF-1R signaling pathway activation in female C57BL/6 mouse BMDM cells assessed as reduction in CSF-1R phosphorylation preincubated with compounds for 4 hrs followed by M-CSF stimulation and measured after 30 mins by Western blot analysis; assay type: cell-based; conditions: dose 10-100 nM, time 4.5 hrs
T1 sequence (whole entry): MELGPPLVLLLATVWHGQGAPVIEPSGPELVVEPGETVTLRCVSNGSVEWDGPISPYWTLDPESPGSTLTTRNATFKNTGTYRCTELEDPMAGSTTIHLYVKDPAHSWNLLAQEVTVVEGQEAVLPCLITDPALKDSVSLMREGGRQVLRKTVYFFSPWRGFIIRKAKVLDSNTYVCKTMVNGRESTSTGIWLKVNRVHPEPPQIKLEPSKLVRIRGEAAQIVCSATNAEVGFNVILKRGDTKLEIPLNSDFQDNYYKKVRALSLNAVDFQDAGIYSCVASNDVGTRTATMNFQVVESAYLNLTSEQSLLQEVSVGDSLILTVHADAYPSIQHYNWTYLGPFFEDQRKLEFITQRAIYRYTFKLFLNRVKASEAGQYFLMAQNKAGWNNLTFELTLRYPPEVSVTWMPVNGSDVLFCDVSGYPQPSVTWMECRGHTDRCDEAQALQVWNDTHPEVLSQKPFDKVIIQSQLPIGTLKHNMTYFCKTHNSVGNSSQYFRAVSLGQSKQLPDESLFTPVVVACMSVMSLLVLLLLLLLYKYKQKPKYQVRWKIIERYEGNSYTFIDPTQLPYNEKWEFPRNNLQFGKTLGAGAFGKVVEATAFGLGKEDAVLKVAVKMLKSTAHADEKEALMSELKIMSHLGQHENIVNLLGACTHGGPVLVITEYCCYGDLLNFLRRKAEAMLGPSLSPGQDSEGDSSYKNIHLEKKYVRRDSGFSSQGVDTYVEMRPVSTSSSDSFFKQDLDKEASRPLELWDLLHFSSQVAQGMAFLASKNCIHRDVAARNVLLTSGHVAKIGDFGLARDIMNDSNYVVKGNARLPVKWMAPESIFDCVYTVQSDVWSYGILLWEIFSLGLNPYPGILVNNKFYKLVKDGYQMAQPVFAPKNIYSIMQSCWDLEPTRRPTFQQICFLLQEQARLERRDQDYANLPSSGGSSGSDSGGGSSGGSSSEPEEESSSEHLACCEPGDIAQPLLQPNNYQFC

[2] = target: T1, Macrophage colony-stimulating factor 1 receptor (Mus musculus); experiment: Inhibition of CSF-1R signaling pathway activation in female C57BL/6 mouse BMDM cells assessed as reduction in ERK phosphorylation preincubated with compounds for 4 hrs followed by M-CSF stimulation and measured after 30 mins by Western blot analysis; assay type: cell-based; conditions: dose 10-100 nM, time 4.5 hrs
[3] = target: T2, Macrophage colony-stimulating factor 1 receptor (Homo sapiens, UniProt P07333); experiment: Binding affinity to recombinant CSF-1R (unknown origin) assessed as association rate constant by SPR analysis
MC-38 [4] = experiment: Induction of apoptosis in mouse MC38 cells cocultured with condition medium of M2 macrophages assessed as early apoptotic cells at 10 nM by Annexin V/PI staining based flow cytometric analysis (reference value: 3.16 %); assay type: functional
MC-38 [5] = experiment: Induction of apoptosis in mouse MC38 cells cocultured with condition medium of M2 macrophages assessed as early apoptotic cells at 30 nM by Annexin V/PI staining based flow cytometric analysis (reference value: 3.16 %); assay type: functional
MC-38 [6] = experiment: Induction of apoptosis in mouse MC38 cells cocultured with condition medium of M2 macrophages assessed as late apoptotic cells at 30 nM by Annexin V/PI staining based flow cytometric analysis (reference value: 1.66 %); assay type: functional
MC-38 [7] = experiment: Induction of apoptosis in mouse MC38 cells cocultured with condition medium of M2 macrophages assessed as late apoptotic cells at 100 nM by Annexin V/PI staining based flow cytometric analysis (reference value: 1.66 %); assay type: functional
MC-38 [8] = experiment: Inhibition of cell viability in mouse MC38 cells cocultured with condition medium of M2 macrophages at 10 to 100 nM by MTT assay; assay type: functional, cell-based; conditions: dose 10-100 nM
MC-38 [9] = experiment: Inhibition of cell proliferation in mouse MC38 cells cocultured with condition medium of M2 macrophages at 10 to 100 nM incubated for 20 hrs by CCK8 assay; assay type: functional, cell-based; conditions: dose 10-100 nM
MC-38 [10] = experiment: Induction of apoptosis in mouse MC38 cells assessed as early apoptotic cells at 10 nM by Annexin V/PI staining based flow cytometric analysis (reference value: 1.91 %); assay type: functional
MC-38 [11] = experiment: Induction of apoptosis in mouse MC38 cells assessed as late apoptotic cells at 30 nM by Annexin V/PI staining based flow cytometric analysis (reference value: 0.85 %); assay type: functional
MC-38 [12] = experiment: Induction of apoptosis in mouse MC38 cells assessed as early apoptotic cells at 100 nM by Annexin V/PI staining based flow cytometric analysis (reference value: 1.91 %); assay type: functional
MC-38 [13] = experiment: Induction of apoptosis in mouse MC38 cells assessed as late apoptotic cells at 100 nM by Annexin V/PI staining based flow cytometric analysis (reference value: 0.85 %); assay type: functional
[14] = target: T2, Macrophage colony-stimulating factor 1 receptor; experiment: Inhibition of CSF-1R (unknown origin) at 1 uM
[15] = AUC (0 to t) in Sprague-Dawley rat at 1 mg/kg, iv; assay type: ADME, organism-based; conditions: in vivo
[16] = MRT (0 to t) in Sprague-Dawley rat at 1 mg/kg, iv; assay type: ADME, organism-based; conditions: in vivo
[17] = Apparent volume of distribution in Sprague-Dawley rat at 1 mg/kg, iv; assay type: ADME, organism-based; conditions: in vivo, read-out: Vz
[18] = Terminal half-life in Sprague-Dawley rat at 10 mg/kg, po; assay type: ADME, organism-based; conditions: in vivo, read-out: beta t1/2 (converted)
[19] = AUC (0 to t) in Sprague-Dawley rat at 10 mg/kg, po; assay type: ADME, organism-based; conditions: in vivo
[20] = Oral bioavailability in Sprague-Dawley rat at 10 mg/kg; assay type: ADME, organism-based; conditions: in vivo
MC-38 [21] = experiment: Antitumor activity against mouse MC38 cells allografted in C57BL/6 mouse model assessed as reduction in tumor volume at 10 to 20 mg/kg, ip administered once daily for 14 days; assay type: functional, organism-based; conditions: dose 10-20 mg/kg, time 14.0 day
MC-38 [22] = experiment: Antitumor activity against mouse MC38 cells allografted in C57BL/6 mouse model assessed as reduction in tumor volume at 10 mg/kg, ip administered once daily for 14 days relative to control; assay type: functional; design: scale not given: the % may be the effect or the level left; conditions: time 14 day
MC-38 [23] = experiment: Antitumor activity against mouse MC38 cells allografted in C57BL/6 mouse model assessed as downregulation of […] mRNA expression in tumor at 10 to 20 mg/kg, ip administered once daily for 14 days by qPCR analysis; assay type: functional, organism-based; conditions: dose 10-20 mg/kg, time 14.0 day
MC-38 [24] = experiment: Antitumor activity against mouse MC38 cells allografted in C57BL/6 mouse model assessed as downregulation of Mrc1 mRNA expression in tumor at 10 to 20 mg/kg, ip administered once daily for 14 days by qPCR analysis; assay type: functional, organism-based; conditions: dose 10-20 mg/kg, time 14.0 day
MC-38 [25] = experiment: Antitumor activity against mouse MC38 cells allografted in C57BL/6 mouse model assessed as upregulation of Tnf mRNA expression in tumor at 10 to 20 mg/kg, ip administered once daily for 14 days by qPCR analysis; assay type: functional, organism-based; conditions: dose 10-20 mg/kg, time 14.0 day

T2 sequence (P07333 whole entry): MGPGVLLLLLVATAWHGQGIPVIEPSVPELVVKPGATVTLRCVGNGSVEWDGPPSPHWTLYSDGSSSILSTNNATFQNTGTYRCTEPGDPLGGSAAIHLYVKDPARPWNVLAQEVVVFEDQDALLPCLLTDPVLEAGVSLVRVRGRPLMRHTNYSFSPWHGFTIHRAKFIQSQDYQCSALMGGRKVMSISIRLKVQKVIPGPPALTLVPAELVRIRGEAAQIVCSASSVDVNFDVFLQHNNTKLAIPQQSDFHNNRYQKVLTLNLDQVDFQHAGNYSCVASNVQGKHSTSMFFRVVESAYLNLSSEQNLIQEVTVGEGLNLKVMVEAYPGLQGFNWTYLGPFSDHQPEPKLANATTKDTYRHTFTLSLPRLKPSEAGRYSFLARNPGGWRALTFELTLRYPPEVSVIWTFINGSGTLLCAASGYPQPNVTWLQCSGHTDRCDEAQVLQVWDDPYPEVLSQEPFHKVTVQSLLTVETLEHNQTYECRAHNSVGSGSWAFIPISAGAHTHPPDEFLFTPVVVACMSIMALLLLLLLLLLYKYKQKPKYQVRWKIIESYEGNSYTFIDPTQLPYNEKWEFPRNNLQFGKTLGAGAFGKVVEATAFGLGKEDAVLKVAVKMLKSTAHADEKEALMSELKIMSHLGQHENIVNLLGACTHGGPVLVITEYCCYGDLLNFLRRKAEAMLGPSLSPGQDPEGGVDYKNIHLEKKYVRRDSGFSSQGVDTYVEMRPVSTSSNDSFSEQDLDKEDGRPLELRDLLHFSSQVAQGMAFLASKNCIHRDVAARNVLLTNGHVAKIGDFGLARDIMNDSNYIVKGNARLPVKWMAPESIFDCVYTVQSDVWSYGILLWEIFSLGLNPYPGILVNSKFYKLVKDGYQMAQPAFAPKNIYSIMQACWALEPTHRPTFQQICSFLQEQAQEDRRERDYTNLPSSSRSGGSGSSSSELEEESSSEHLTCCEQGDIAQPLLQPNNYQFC

For Cc1nc(NC(=O)N[C@@H]2CCCC[C@H]2O)ccc1Oc1c[nH]c2ncc(Cl)cc12, the inhibition [1] was “Dose-dependent-effect”, the inhibition [2] was “Dose-dependent-effect” and the Ka [3] was 1.07 10^5/Ms. It also gave an Activity (MC-38 [4]) of 6.15%, an Activity (MC-38 [5]) of 13.61% and an Activity (MC-38 [6]) of 4.88%. For the same compound, the Activity (MC-38 [7]) was 5.67%, the inhibition (MC-38 [8]) was “Active” and the inhibition (MC-38 [9]) was “Active”. The Activity (MC-38 [10]) was 1.96%, the Activity (MC-38 [11]) was 0.87% and the Activity (MC-38 [12]) was 2.03%. The Activity (MC-38 [13]) was 1.01%, the inhibition [14] was “Active” and the AUC(0-t) [15] was 526 ng·h/mL. The MRT last [16] was 1.6 h, the Vd [17] was 3.28 L/kg and the half-life [18] was 1.86 h. The AUC(0-t) [19] was 4170 ng·h/mL, the bioavailability [20] was 79.2% and the Activity (MC-38 [21]) was “Active; Better Activity Observed Than Plx3397-Treated Group”. For the same compound, the Activity (MC-38 [22]) was 38%, the Activity (MC-38 [23]) was “Active” and the Activity (MC-38 [24]) was “Active”. For the same compound, the Activity (MC-38 [25]) was “Active”.
